Data reported in the Kinase Knowledgebase extract (Sharma et al. 2016).

Molecular target: CDK2 (UniProt P24941)
Assay: Enzyme Assay

IC50 | SMILES
10000 nM | CNc1nc(C)c(-c2ccnc(Nc3ccc(Cl)c(C(F)(F)F)c3)n2)s1
1100 nM | COC(=O)c1cc(Nc2nccc(-c3sc(C)nc3C)n2)ccc1Cl
3000 nM | CNc1nc(C)c(-c2ccnc(Nc3cccc(Cl)c3)n2)s1
800 nM | CNc1nc(C)c(-c2ccnc(Nc3ccc(OC)cc3)n2)s1
1200 nM | CNc1nc(C)c(-c2ccnc(Nc3ccc(F)c(F)c3)n2)s1
600 nM | COc1ccc(Nc2nccc(-c3sc(C)nc3C)n2)c(O)c1

Second part, the compound before the results:

SMILES | IC50
Cc1nc(C)c(-c2ccnc(Nc3ccc(Cc4ccncc4)cc3)n2)s1 | 700 nM
Cc1nc(C)c(-c2ccnc(Nc3cccc(NC(=N)N)c3)n2)s1 | 1400 nM
COCCOC(=O)c1cc(Nc2nccc(-c3sc(C)nc3C)n2)ccc1F | 600 nM
Cc1nc(C)c(-c2ccnc(Nc3ccc([N+](C)(C)C)cc3)n2)s1 | 1500 nM
CNc1nc(C)c(-c2ccnc(Nc3cc(F)cc(F)c3)n2)s1 | 2000 nM
CNc1nc(C)c(-c2ccnc(Nc3cccc(F)c3)n2)s1 | 600 nM

Molecular target: MAPK14 (UniProt Q16539)
Sequence (Q16539 whole entry, looked up): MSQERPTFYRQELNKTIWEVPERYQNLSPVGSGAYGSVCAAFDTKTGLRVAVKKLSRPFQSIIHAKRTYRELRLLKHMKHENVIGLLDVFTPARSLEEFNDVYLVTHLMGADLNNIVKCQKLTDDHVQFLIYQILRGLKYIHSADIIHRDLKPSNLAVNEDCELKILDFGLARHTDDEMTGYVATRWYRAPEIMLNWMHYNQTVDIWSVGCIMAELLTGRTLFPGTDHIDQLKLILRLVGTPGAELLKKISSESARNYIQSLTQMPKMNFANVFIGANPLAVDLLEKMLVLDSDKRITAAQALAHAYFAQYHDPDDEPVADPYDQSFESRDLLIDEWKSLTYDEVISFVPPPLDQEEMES
Assay: SAPK2-alpha Kinase Inhibition

IC50 | SMILES
> 20 µM | Cc1nc(C)c(-c2ccnc(Nc3ccc(Cl)cc3)n2)s1
> 20 µM | Cc1nc(C)c(-c2ccnc(Nc3cccc([N+](=O)[O-])c3)n2)s1
> 20 µM | Cc1nc(C)c(-c2ccnc(Nc3ccc(F)cc3)n2)s1

Molecular target: CDK2 (UniProt P24941)
Assay: not given

IC50 | SMILES
9 µM | Cc1nc(C)c(-c2ccnc(Nc3ccc(Cl)cc3)n2)s1
